One assay relates to p38 MAP kinase. Description: Phosphorylation of p38 MAP kinase in PMA-treated THP-1 cells, Western blotting. In kind it is cell-based, human. As to the method: Parental, mock, DDR1a- or DDR1b-overexpressing THP-1 cells were plated at 5×10^6/ml on uncoated tissue culture plates and stimulated with PMA (10 nM) for 24 hours, and then starved in RMPI 1640 without FCS for 10 hours. Subsequently cells were washed three times with PBS, and then incubated in the presence of 50 μg/ml collagen type I for various times.
Ten million cells were lysed on ice for 20 minutes in a buffer containing 50 mM NaCl, 20 mM Tris-HCl, 50 mM sodium fluoride, 30 mM Na4P2O7, 5 mM EGTA, 3 mM sodium orthovanadate, 1% Triton X-100, 1 mg/ml leupeptin, 1 mM PMSF, 1 mg/ml aprotinin, 1 mg/ml pepstatinA and 100 μM sodium orthovanadate treated with H2O2. A lysis buffer containing 150 mM NaCl, 50 mM HEPES, 1% Triton-X 10% glycerol, 1 mM sodium fluoride, 1 mM EDTA, 2 mM sodium orthovanadate, 1 mg/ml leupeptin, 1 mM PMSF, 1 mg/ml aprotinin, 1 mg/ml pepstatinA and 100 μM sodium orthovanadate treated with H2O2, was also used for immunoprecipitation with anti-Shc Ab. The lysates were spun in a microcentrifuge for 20 minutes and the supernatants were collected. […]
Eluted proteins were analyzed on 8% polyacrylamide gels by SDS-PAGE and transferred electrophoretically to nitrocellulose membranes at 150 mA for 1 hour by a semi-dry system. […] To detect phosphorylated or nonphosphorylated p38 MAP kinase or ATF-2, 20 μl of cell lysates were directly mixed with 20 μl of sample buffer and then analyzed.
Downstream signaling molecules that may play a role in the up-regulation of HLA-DR in collagen-activated PMA-treated DDR1b-overexpressing cells were identified in the following manner. […] Phosphorylation of p38 MAP kinase was first detected 30 minutes after collagen activation of DDR1b-overexpressing cells and the level of phosphorylation increased thereafter. […] Phosphorylation of p38 MAP kinase was not detected in DDR1a-overexpressing cells up to 120 minutes. […] Phosphorylation of other members of the MAP kinase family, ERK1, ERK2, and JNK could not be detected in collagen-activated PMA-treated DDR1b-overexpressing cells. […]

In another assay the test system is DDR1 mRNA. As to the kind of experiment: DDR1 mRNA expression in PBMC by Northern blotting. To be noted: 8 hours, TNF-α 5 ng/ml, IL-1β 10 ng/ml, IFN-γ 50 U/ml, GM-CSF 10 ng/ml, LPS 1 μg/ml, PHA 5 μg/ml. In kind it is cell-based, human. As to the method: PMN and PBMC were maintained at a density of 5×10^6 cells/ml in the complete medium in six-well tissue culture cluster (Coster, Cambridge, Mass.; 3 ml/well). Total RNA was extracted from each culture by using TRIZOL® Reagent. PolyA mRNA was purified on Oligotex columns (Qiagen, Valencia, Calif.). Northern blot analysis was performed as described (Yoshimura, J. Immunol. 150:5025, 1993), except that ULTRAhyb (Ambion) was used. A human DDR1 cDNA (757-bp) was obtained by PCR from a U-105 human glioblastoma cell line cDNA library and was ligated into the EcoRI/HindIII site of the pBluescript (Stratagene, La Jolla, Calif.). The sense primer was 5′-[…]-3′ (SEQ ID NO: 2; corresponding to residues between 68 and 87 in the nucleotide sequence of the trkE cDNA, GenBank accession number X74979) and the antisense primer was 5′-[…]-3′ (SEQ ID NO: 3; corresponding to residues between 805 and 824 in the nucleotide sequence of the trkE cDNA).
Freshly isolated PBMC expressed only a low level of DDR1 mRNA. The expression level was increased about eightfold when the cells were incubated in either RPMI 1640 or RPMI 1640 containing 10% FCS.

Consider collagen, for which the “phosphorylation of p38 MAP kinase” value with p38 MAP kinase (DDR1a-overexpressing cells, up to 120 minutes) is given as “not detected”. Also, in the assay with p38 MAP kinase (DDR1b-overexpressing cells), the “time phosphorylation of p38 MAP kinase first detected” value turned out to be 30 min. TNF-α: the “level of DDR1 mRNA expression” value in the assay with DDR1 mRNA is recorded as “further augmented”.

Source of the values: US7855076B2, “Use of discoidin domain receptor 1 (DDR1) and agents that affect the DDR1/collagen pathway” (The United States of America as represented by the …, priority 2002, dated 2010).
